# Biological target: T1, GAK kinase (Homo sapiens, UniProt O14976)
# T1 construct: made in house; host or cells: E. coli host derived from the BL21 strain, infected with T7 phage
# T1 sequence (O14976 1-1311): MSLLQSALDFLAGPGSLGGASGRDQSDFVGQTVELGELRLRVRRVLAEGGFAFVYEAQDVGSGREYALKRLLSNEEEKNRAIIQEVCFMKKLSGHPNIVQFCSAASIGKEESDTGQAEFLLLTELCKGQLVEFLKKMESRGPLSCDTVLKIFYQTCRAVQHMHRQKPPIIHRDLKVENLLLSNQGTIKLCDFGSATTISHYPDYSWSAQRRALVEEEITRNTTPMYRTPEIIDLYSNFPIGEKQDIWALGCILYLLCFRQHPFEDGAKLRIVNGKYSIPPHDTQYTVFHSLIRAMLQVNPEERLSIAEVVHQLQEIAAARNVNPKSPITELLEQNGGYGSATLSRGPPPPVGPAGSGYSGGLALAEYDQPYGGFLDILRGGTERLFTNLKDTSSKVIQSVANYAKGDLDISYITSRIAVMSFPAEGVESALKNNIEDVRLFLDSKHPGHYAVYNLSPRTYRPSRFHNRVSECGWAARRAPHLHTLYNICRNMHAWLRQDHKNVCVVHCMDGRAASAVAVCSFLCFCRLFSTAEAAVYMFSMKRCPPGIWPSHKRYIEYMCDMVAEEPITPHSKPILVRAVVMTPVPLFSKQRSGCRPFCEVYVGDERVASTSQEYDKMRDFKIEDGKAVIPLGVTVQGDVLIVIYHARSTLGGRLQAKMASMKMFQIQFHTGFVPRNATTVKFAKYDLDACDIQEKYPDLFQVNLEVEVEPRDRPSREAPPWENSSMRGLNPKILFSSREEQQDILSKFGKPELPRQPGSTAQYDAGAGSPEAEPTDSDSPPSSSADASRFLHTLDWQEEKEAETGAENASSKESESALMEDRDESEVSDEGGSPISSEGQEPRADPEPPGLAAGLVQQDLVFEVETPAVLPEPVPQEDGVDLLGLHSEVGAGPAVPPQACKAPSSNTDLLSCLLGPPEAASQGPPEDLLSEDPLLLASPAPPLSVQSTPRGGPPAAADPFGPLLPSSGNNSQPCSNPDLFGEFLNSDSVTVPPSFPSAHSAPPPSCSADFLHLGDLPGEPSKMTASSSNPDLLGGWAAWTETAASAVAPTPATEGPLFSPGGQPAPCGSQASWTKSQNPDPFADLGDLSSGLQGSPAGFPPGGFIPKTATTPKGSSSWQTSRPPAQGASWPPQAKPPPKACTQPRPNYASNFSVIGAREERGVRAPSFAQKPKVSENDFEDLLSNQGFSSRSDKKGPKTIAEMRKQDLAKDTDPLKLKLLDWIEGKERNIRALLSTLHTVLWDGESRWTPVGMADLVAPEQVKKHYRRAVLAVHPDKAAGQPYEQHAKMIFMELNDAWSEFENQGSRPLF
# Experiment: GAK binding assay (T7 phage kinase competition binding)
# Conditions: for Kd: determined for selected compounds with % control <5 at 10 μM; for remaining binding at 10 µM: single concentration of 10 μM, lower numbers indicate stronger hits, read-out: % Ctrl
# Experimental: The compounds of the invention were assayed for their GAK kinase binding affinity using the protocols, as described in Fabian, M. A. et al. A small molecule-kinase interaction map for clinical kinase inhibitors. Nat. Biotechnol.
# T7 kinase-tagged phage strains were grown in parallel in 24- or 96-well blocks in an E. coli host derived from the BL21 strain. E. coli were grown to log phase and infected with T7 phage from a frozen stock (multiplicity of infection ˜0.1) and incubated with shaking at 32° C. until lysis (˜90 min). The lysates were centrifuged (6,000 g) and filtered ([…]) to remove cell debris. […] The liganded beads were blocked with excess biotin and washed with blocking buffer (SeaBlock (Pierce), 1% BSA, 0.05% Tween 20, 1 mM DTT) to remove unbound ligand and to reduce nonspecific phage binding. […] Test compounds were prepared as 1,000× stocks in DMSO and rapidly diluted into the aqueous environment (0.1% DMSO final). DMSO (0.1%) was added to control assays lacking a test compound. All reactions were carried out in polystyrene 96-well plates that had been pretreated with blocking buffer in a final volume of 0.1 ml. […] The phage titer in the eluates was measured by standard plaque assays or by quantitative PCR.
# The compounds were tested at a single concentration of 10 μM.
# [formula] Binding Constant Measurements
# Kd(probe) is the binding constant for the interaction between the kinase and the immobilized ligand, [Probe] is the concentration of the immobilized ligand and [test]1/2 is the concentration of the free test compound at the midpoint of the transition. If [Probe] is below Kd(probe) the expression simplifies to Kd(test)=[test]1/2. Under these conditions the binding constants measured for the interaction between kinases and test compounds (Kd(test)) are therefore independent of the affinity of the immobilized ligand for the kinase (Kd(probe)). T7 phage grow to a titer of 10^8-10^10 plaque forming units (PFU)/ml, and the concentration of phage-tagged kinase in the binding reaction is therefore in the low picomolar range. […] Clustering and visualization was performed with Cluster 3.0 (M. Eisen, Stanford University) and Mapletree software (M. Eisen, Stanford University; L. Simirenko, Lawrence Berkeley National Lab).
Molecule,Kd [nM],remaining binding at 10 µM [%],% Ctrl (10 µM) [%]
"COc1cc(Br)c(-c2cnc3c(N4CCOCC4)snc3c2)cc1OC [Example 60, 4-(6-(2-bromo-4,5-dimethoxyphenyl)isothiazolo[4,3-b]pyridin-3-yl)morpholine]",180,1.1,
"CCOc1snc2cc(-c3cc(OC)c(OC)cc3Br)cnc12 [Example 87, 6-(2-bromo-4,5-dimethoxyphenyl)-3-ethoxyisothiazolo[4,3-b]pyridine]",330,4.3,
"Brc1cnc2c(N3CCOCC3)snc2c1 [Example 11, 6-bromo-3-morpholino-isothiazolo[4,3-b]pyridine]",,50,
"COc1ccc(-c2cnc3c(N4CCOCC4)snc3c2)cc1OC(C)=O [Example 62, 2-methoxy-5-(3-morpholinoisothiazolo[4,3-b]pyridin-6-yl)phenyl acetate]",82,0,
"COc1snc2cc(-c3cccnc3)cnc12 [Example 35, 3-methoxy-6-(3-pyridyl)-isothiazolo[4,3-b]pyridine]",,93,
"Nc1snc2cc(Br)cnc12 [Example 3, 3-amino-6-bromo-Isothiazolo[4,3-b]pyridine]",,97,
"COc1ccc(-c2cnc3c(NCC(O)CO)snc3c2)cc1OC (stereo not shown) [Example 71, 3-(6-(3,4-dimethoxyphenyl)isothiazolo[4,3-b]pyridin-3-ylamino)propane-1,2-diol]",330,2.6,
"CCOC(=O)N1CCC(Nc2snc3cc(-c4ccc(OC)c(OC)c4)cnc23)CC1 [Example 72, ethyl 4-(6-(3,4-dimethoxyphenyl)isothiazolo[4,3-b]pyridin-3-ylamino)piperidine-1-carboxylate]",,40,
"COc1cccc(-c2cnc3c(N4CCOCC4)snc3c2)c1 [Example 61, 4-(6-(3-methoxyphenyl)isothiazolo[4,3-b]pyridin-3-yl)morpholine]",180,0.05,
"COc1snc2cc(-c3ccccc3)cnc12 [Example 33, 3-methoxy-6-phenyl-isothiazolo[4,3-b]pyridine]",,9.4,
"COc1ccc(-c2cnc3csnc3c2)cc1OC [Example 85, 6-(3,4-dimethoxyphenyl)isothiazolo[4,3-b]pyridine]",,31,
"COc1cc(Br)c(-c2cnc3c(N4CCC(C)CC4)snc3c2)cc1OC [Example 86, 6-(2-bromo-4,5-dimethoxyphenyl)-3-(4-methylpiperidin-1-yl)isothiazolo[4,3-b]pyridine]",,92,
"COc1ccc(-c2cnc3c(NCCCCCO)snc3c2)cc1OC [Example 67, 5-(6-(3,4-dimethoxyphenyl)isothiazolo[4,3-b]pyridin-3-ylamino)pentan-1-ol]",210,0.85,
"COc1ccc(-c2cnc3c(N4CCC(=O)CC4)snc3c2)cc1OC [Example 65, 1-(6-(3,4-dimethoxyphenyl)isothiazolo[4,3-b]pyridin-3-yl)piperidin-4-one]",31,0,
"COc1ccc(-c2cnc3c(-c4ccsc4)snc3c2)cc1OC [Example 84, 6-(3,4-dimethoxyphenyl)-3-(thiophen-3-yl)isothiazolo[4,3-b]pyridine]",140,0,
"COc1ccc(-c2cnc3c(N4CCOCC4)snc3c2)cc1 [Example 63, 4-(6-(4-methoxyphenyl)isothiazolo[4,3-b]pyridin-3-yl)morpholine]",140,0.6,
"COC(=O)c1ccc(-c2cnc3c(N4CCOCC4)snc3c2)cc1OC [Example 46, Methyl 2-methoxy-4-(3-morpholinoisothiazolo[4,3-b]pyridin-6-yl)benzoate]",19,2.8,
"COc1ccc(-c2cnc3c(-c4ccncc4)snc3c2)cc1OC [Example 83, 6-(3,4-dimethoxyphenyl)-3-(pyridin-4-yl)isothiazolo[4,3-b]pyridine]",52,0.05,
"COC(=O)c1ccc(-c2cnc3c(N4CCOCC4)snc3c2)cc1 [Example 53, Methyl 4-(3-morpholinoisothiazolo[4,3-b]pyridin-6-yl)benzoate]",,9,
"CNC(=O)c1ccc(-c2cnc3c(N4CCOCC4)snc3c2)cc1 [Example 54, N-Methyl-4-(3-morpholinoisothiazolo[4,3-b]pyridin-6-yl)benzamide]",88,0.05,
"COc1ccc(-c2cnc3c(OC)snc3c2)cc1OC [Example 36, 3-methoxy-6-(3,4-dimethoxyphenyl)-isothiazolo[4,3-b]pyridine]",,19,
"6-bromo-6-ethanolamino-isothiazolo[4,3-b]pyridine [Example 12]",,,62
"COc1ccc(-c2cnc3c(N4CCC5(CC4)OCCO5)snc3c2)cc1OC [Example 81, 8-(6-(3,4-dimethoxyphenyl)isothiazolo[4,3-b]pyridin-3-yl)-1,4-dioxa-8-azaspiro[4.5]decane]",,12,
"CCN(CC)c1snc2cc(-c3ccc(OC)c(OC)c3)cnc12 [Example 79, 6-(3,4-dimethoxyphenyl)-N,N-diethylisothiazolo[4,3-b]pyridin-3-amine]",210,0.05,
"COc1ccc(-c2cnc3c(N4CCCC(O)C4)snc3c2)cc1OC (stereo not shown) [Example 68, 1-(6-(3,4-dimethoxyphenyl)isothiazolo[4,3-b]pyridin-3-yl)piperidin-3-ol]",69,0.05,
"COc1ccc(-c2cnc3c(-c4ccccc4)snc3c2)cc1OC [Example 82, 6-(3,4-dimethoxyphenyl)-3-phenylisothiazolo[4,3-b]pyridine]",260,0.15,
"COc1snc2cc(Br)cnc12 [Example 14, 3-methoxy-6-bromo-isothiazolo[4,3-b]pyridine]",,100,
"COc1snc2cc(-c3ccsc3)cnc12 [Example 37, 3-methoxy-6-(3-thienyl)-isothiazolo[4,3-b]pyridine]",,22,
